We go through 12 compounds from patent publication US11407717B2, “Benzimidazole derivatives and use thereof as IDH1 inhibitors” (KPC PHARMACEUTICALS, INC., priority 2018, dated 2022).

Like-named read-outs stand apart in the source and are kept apart here.

In data set [1] the target is IDH1(R132H) (Homo sapiens, UniProt O75874, R132H). The data set is described as follows: IDH1 in vitro enzyme activity test (IDH1 R132H). Format: biochemical. The following applies: 1500 μM α-KG + 15 μM NADPH. As to the method: (§1) The IDH1 mutant catalyzes the NADPH-dependent reduction of α-KG (α-ketoglutarate) to 2-HG (2-hydroxyglutarate), and the consumed NADPH can be read by fluorescence.
Sequence of IDH1(R132H) (O75874 whole entry R132H): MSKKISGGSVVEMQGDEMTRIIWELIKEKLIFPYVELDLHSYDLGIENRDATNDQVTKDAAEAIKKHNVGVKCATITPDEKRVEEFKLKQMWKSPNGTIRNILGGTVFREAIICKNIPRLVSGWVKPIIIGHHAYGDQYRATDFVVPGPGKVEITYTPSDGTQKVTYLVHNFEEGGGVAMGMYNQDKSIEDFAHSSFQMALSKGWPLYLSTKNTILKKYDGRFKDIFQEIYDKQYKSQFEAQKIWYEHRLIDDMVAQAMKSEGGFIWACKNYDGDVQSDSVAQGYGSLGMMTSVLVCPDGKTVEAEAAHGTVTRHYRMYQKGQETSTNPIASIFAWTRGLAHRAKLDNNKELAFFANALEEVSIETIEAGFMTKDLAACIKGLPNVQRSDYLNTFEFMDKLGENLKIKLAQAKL
(§2) Basic reaction buffer: 50 mM KH2PO4, pH 7.5, 10 mM MgCl2, 10% glycerol, 150 mM NaCl, 0.05% BSA (bovine serum albumin), 2 mM b-ME (2-mercaptoethanol), 0.003% Brij35 (polyethylene glycol lauryl ether)
(§3) Substrates and cofactors: • IDH1 wt (wild type): 65 μM isocitrate+50 μM NADP • IDH1(R132H): 1500 μM α-KG+15 μM NADPH • IDH1(R132C): 500 μM α-KG+15 μM NADPH
(§4) 1.33× enzyme (no enzyme in the control well), buffer, and NADP or NADPH (control well) were added into the wells of the reaction plate. The test compound was dissolved in 100% DMSO and then added to the enzyme mixture (Echo550, nanoliter level), and incubated for 60 minutes after simple centrifugation. A mixture of 4× substrate and cofactor were added to start the reaction. After simple centrifugation, the plate was incubated under shaking at room temperature for 45 minutes. A mixture of 3× lipoamide dehydrogenase and Resazurin was prepared, added to the reaction solution to test the amount of NADPH generated or remaining, and incubated at room temperature for 10 minutes after simple centrifugation. Multifunctional microplate reader Envision was used to measure (Ex/Em=535/590 nm).

Data set [2] has as its target IDH1(R132C) (Homo sapiens, UniProt O75874, R132C). The experiment in a line: IDH1 in vitro enzyme activity test (IDH1 R132C). Format: biochemical. The note with it: 500 μM α-KG + 15 μM NADPH. As to the method: as §1, §2, §3, §4
For data set [3], the target named is IDH1 wt (wild type) (Homo sapiens, UniProt O75874). The data set is described as follows: IDH1 in vitro enzyme activity test (IDH1 wild type). Format: biochemical. The note with it: 65 μM isocitrate + 50 μM NADP. As to the method:
as §1, §2, §3, §4

Data set [4] has as its system U87MG-IDH1-R132H cell strain. The data set is described as follows: IDH1 cytological activity test, 2HG content in cell culture supernatant by LC-MS. It is filed as cell-based. The note with it: Homo sapiens, U-87 MG, 72 h; 2-HG in supernatant, 3 days incubation. As to the method:
In this study, the compound was incubated with the IDH1 mutant cell line, and the 2HG content in the cell culture supernatant was detected by LC-MS to determine the inhibitory activity of the compound on the IDH1 mutant. IDH1 catalyzes the […] of isocitrate to α-ketoglutarate (α-KG) in organisms, and the IDH1 mutant further catalyzes the reduction of α-KG to 2-hydroxyglutarate (2HG). The U87MG-IDH1-R132H cell strain is a stable transfected cell strain that can stably express IDH1-R132H mutant, obtained via screening by transfecting U87MG cells with IDH1-R132H, and the HT1080 cell strain contains an endogenous IDH1-R132C mutant. 1) The compound was diluted 3-fold with DMSO and then added to the cell culture plate, at a total of 10 concentrations, double duplicate holes for each concentration. The negative control well contains only DMSO, and the positive control well contained BAY1436032 at a final concentration of 5 μM. The final concentration of DMSO in all wells was 0.5%. 2) The IDH1 mutant cell line was seeded into a cell culture plate containing the compound at a density of 40,000 cells/well. The cells were incubated with the compound in a incubator at 37° C., 5% CO2 for 3 days. […]

The nature of data set [5]: Evaluation of pharmacokinetics in mice. Format: in vivo, CD-1 mice. The following applies: for AUC(0-t): read-out: Area under curve AUC0-last. As for the experimental part: 1) Experimental drug: Example 6;
2) Experimental animals: 8 male CD-1 mice aged 7-10 weeks, divided into 2 groups, 4 in each group;
3) Drug preparation: for the tail vein injection group, an appropriate amount of the drug was weighted, and dissolved in a mixed solvent of DMSO: 20% hydroxypropyl betacyclodextrin (HPbCD)=10:90 to prepare a 0.5 mg/mL solution; for the intragastric administration group, an appropriate amount of the drug was weighted, and dissolved in DMSO: polyoxyethylene castor oil EL (Cremophor EL):5% sulfobutyl cyclodextrin (Captisol)=5:10:85 to prepare a suspension.
Animals in group 1 were given a single injection of the drug at a dose of 1 mg/kg and a concentration of 0.5 mg/mL via tail vein, and animals in group 2 were given a compound at a dose of 20 mg/kg and a concentration of 2 mg/mL via gavage. Plasma samples were cross-collected from the animals at 0.0833 (tail vein injection group only), 0.25, 0.5, 1, 2, 4, 6, 8 and 24 hours after administration. The LC-MS/MS method was used to determine the drug concentration in the plasma sample, and the kinetic parameters of the tested drug are shown in Table 4: […]

Sequence of IDH1(R132C) (O75874 whole entry R132C): as the sequence (O75874 whole entry R132H) above, with H132C counted along it
Sequence of IDH1 wt (wild type) (O75874 whole entry): as the sequence (O75874 whole entry R132H) above, with H132R counted along it

As to `C[C@H](c1ccccc1)n1c(Nc2ccc(OC(F)(F)F)cc2)nc2cc(CCC(=O)O)ccc21` [Example 1], the IC50 in data set [1] is 7.9 nM; in data set [2] it was 102 nM; in data set [3], more than 10000 nM; in data set [4] it was 92.8 nM.

As to `C[C@@H](c1ccccc1)n1c(Nc2ccc(OC(F)(F)F)cc2)nc2cc(CCC(=O)O)ccc21` [Example 2], the IC50 in data set [1] amounted to 464 nM.

`C[C@H](c1ccc(Cl)cc1)n1c(Nc2ccc(OC(F)(F)F)cc2)nc2cc(CCC(=O)O)ccc21` [Example 3]: the IC50 in data set [1] amounted to 320 nM.

As to `C[C@H](c1ccc(F)cc1)n1c(Nc2ccc(OC(F)(F)F)cc2)nc2cc(CCC(=O)O)ccc21` [Example 4], the IC50 in data set [1] was 126 nM.

`CC[C@H](c1ccccc1)n1c(Nc2ccc(OC(F)(F)F)cc2)nc2cc(CCC(=O)O)ccc21` [Example 5]: the IC50 in data set [1] was found to be 89.5 nM.

With `O=C(O)CCc1ccc2c(c1)nc(Nc1ccc(OC(F)(F)F)cc1)n2[C@@H]1CCCc2ccccc21` [Example 6], the IC50 was 3.94 nM in data set [1], 12.8 nM in data set [2], more than 10000 nM in data set [3] and 38.2 nM in data set [4]. Besides, the “pharmacokinetic properties in mice (in words)” value in data set [5] (mice) is “good pharmacokinetic properties”. Moreover, the AUC(0-t) is 15.5 µM·h in data set [5] (mouse, iv, male CD-1 mice, tail vein injection, 1 mg/kg, plasma) and 307 µM·h in data set [5] (mouse, po, male CD-1 mice, intragastric administration, 20 mg/kg, plasma). Also, the C0 in data set [5] (mouse, iv, male CD-1 mice, tail vein injection, 1 mg/kg, plasma, read-out: Initial concentration C0) was 3.54 µM. The clearance in data set [5] (mouse, plasma, iv, male CD-1 mice, tail vein injection, 1 mg/kg, read-out: Clearance Cl) is 2.17 mL/min/kg. In addition, the half-life in data set [5] (mouse, plasma, iv, male CD-1 mice, tail vein injection, 1 mg/kg, read-out: Half-life T1/2 (converted)) is 2.9 h. The Vd in data set [5] (mouse, plasma, iv, male CD-1 mice, tail vein injection, 1 mg/kg, read-out: Volume of distribution Vd) came out at 0.69 L/kg. Also, in data set [5] (mouse, plasma, po, male CD-1 mice, intragastric 20 mg/kg vs tail vein 1 mg/kg, read-out: Bioavailability F), the bioavailability was 99.1%. For the same compound, the Tmax in data set [5] (mouse, plasma, po, male CD-1 mice, intragastric administration, 20 mg/kg, read-out: Time of highest concentration T1/2 (converted)) is 1 h. The Cmax in data set [5] (mouse, po, male CD-1 mice, intragastric administration, 20 mg/kg, plasma, read-out: Highest concentration Cmax) turned out to be 33.4 µM.

As to `C[C@H](c1cccc(Cl)c1)n1c(Nc2ccc(OC(F)(F)F)cc2)nc2cc(CCC(=O)O)ccc21` [Example 7], in data set [1], the IC50 is 121 nM.

For the compound `O=C(O)CCc1ccc2c(c1)nc(Nc1ccc(OC(F)(F)F)cc1)n2[C@@H]1CCc2ccccc21` [Example 8], the IC50 in data set [1] turned out to be 2.88 nM.

As to `O=C(O)CCc1ccc2c(c1)nc(Nc1ccc(OC(F)(F)F)cc1)n2C(c1ccccc1)c1ccccc1` [Example 9], the IC50 in data set [1] was determined as 21.9 nM.

For `COc1ccccc1[C@@H](C)n1c(Nc2ccc(OC(F)(F)F)cc2)nc2cc(CCC(=O)O)ccc21` [Example 10], the IC50 in data set [1] worked out at 344 nM.

`CC(C)(C)[C@H](c1ccccc1)n1c(Nc2ccc(OC(F)(F)F)cc2)nc2cc(CCC(=O)O)ccc21` [Example 11]: in data set [1], the IC50 came to 24.5 nM.

For `O=C(O)CCc1ccc2c(c1)nc(Nc1ccc(OC(F)(F)F)cc1)n2[C@@H](c1ccccc1)C1CC1` [Example 12], in data set [1], the IC50 is 15.7 nM.
